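1) Cells in 96-well plates. 2) Compound, 48 h, 5 concentrations. 3) Linear interpolation between surrounding doses. 4) Unreached endpoint = highest concentration. The concentration for full growth arrest is given as TGI.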 Where a SMILES comes first, the peptide text is derived from it. [ ]: non-standard residue; d: D form. The star is where a group is joined. ξ: configuration not given here. ξD = NC(CC(=O)O)C(=O)O; Boc = CC(C)(C)OC(=O)*; Aib = CC(C)(N)C(=O)O; OBn = c1ccc(CO*)cc1
Legend:
Test in all cases: DTP human tumour cell line panel, 48 h
HCT-15 colon = test system: HCT-15 colon
MDA-MB-231 breast = test system: MDA-MB-231 breast
CAKI-1 renal = test system: CAKI-1 renal
ACHN renal = test system: ACHN renal
LOX IMVI melanoma = test system: LOX IMVI melanoma
UO-31 renal = test system: UO-31 renal
MDA-MB-435 = test system: MDA-MB-435
SK-MEL-2 melanoma = test system: SK-MEL-2 melanoma
NCI-H460 lung = test system: NCI-H460 lung
M14 melanoma = test system: M14 melanoma
A549 NSCLC = test system: A549 NSCLC
786-0 renal = test system: 786-0 renal
SN12C renal = test system: SN12C renal
SF-295 CNS = test system: SF-295 CNS
SNB-19 CNS = test system: SNB-19 CNS
NCI/ADR-RES ovarian = test system: NCI/ADR-RES ovarian
SF-539 CNS = test system: SF-539 CNS
DU-145 prostate = test system: DU-145 prostate
HT29 colon = test system: HT29 colon
U251 CNS = test system: U251 CNS
T-47D breast = test system: T-47D breast
MALME-3M melanoma = test system: MALME-3M melanoma
COLO 205 colon = test system: COLO 205 colon
OVCAR-8 ovarian = test system: OVCAR-8 ovarian
A498 renal = test system: A498 renal
HOP-92 NSCLC = test system: HOP-92 NSCLC
HOP-62 NSCLC = test system: HOP-62 NSCLC
MDA-N = test system: MDA-N
SF-268 CNS = test system: SF-268 CNS
BT-549 breast = test system: BT-549 breast
EKVX NSCLC = test system: EKVX NSCLC
IGROV1 ovarian = test system: IGROV1 ovarian
K-562 leukemia = test system: K-562 leukemia
SNB-75 CNS = test system: SNB-75 CNS
TK-10 renal = test system: TK-10 renal
PC-3 prostate = test system: PC-3 prostate
OVCAR-4 ovarian = test system: OVCAR-4 ovarian
SK-MEL-28 melanoma = test system: SK-MEL-28 melanoma
RXF 393 renal = test system: RXF 393 renal
HCT-116 colon = test system: HCT-116 colon
KM12 colon = test system: KM12 colon
RPMI-8226 leukemia = test system: RPMI-8226 leukemia
NCI-H226 lung = test system: NCI-H226 lung
UACC-62 melanoma = test system: UACC-62 melanoma
CCRF-CEM leukemia = test system: CCRF-CEM leukemia
SW-620 colon = test system: SW-620 colon
OVCAR-5 ovarian = test system: OVCAR-5 ovarian
HS 578T breast = test system: HS 578T breast
NCI-H522 lung = test system: NCI-H522 lung
SK-OV-3 ovarian = test system: SK-OV-3 ovarian
MOLT-4 leukemia = test system: MOLT-4 leukemia
OVCAR-3 ovarian = test system: OVCAR-3 ovarian
MCF7 breast = test system: MCF7 breast
NCI-H23 lung = test system: NCI-H23 lung
UACC-257 melanoma = test system: UACC-257 melanoma
SK-MEL-5 melanoma = test system: SK-MEL-5 melanoma
HL-60(TB) leukemia = test system: HL-60(TB) leukemia

Measured: TGI

CC(C)(C)OC(=O)NC(CC(=O)OCc1ccccc1)C(=O)NC(C)(C)C(N)=O (centres undefined) (Boc-[ξD](OBn)-[Aib]-NH2)
> 100 µM: HCT-15 colon | MDA-MB-231 breast | CAKI-1 renal | ACHN renal | LOX IMVI melanoma | UO-31 renal | MDA-MB-435 | SK-MEL-2 melanoma | NCI-H460 lung | M14 melanoma | A549 NSCLC | 786-0 renal | SN12C renal | SF-295 CNS | SNB-19 CNS | NCI/ADR-RES ovarian | SF-539 CNS | DU-145 prostate | HT29 colon | U251 CNS | T-47D breast | MALME-3M melanoma | COLO 205 colon | OVCAR-8 ovarian | A498 renal | HOP-92 NSCLC | HOP-62 NSCLC | MDA-N | SF-268 CNS | BT-549 breast | EKVX NSCLC | IGROV1 ovarian | K-562 leukemia | SNB-75 CNS | TK-10 renal | PC-3 prostate | OVCAR-4 ovarian | SK-MEL-28 melanoma | RXF 393 renal | HCT-116 colon | KM12 colon | RPMI-8226 leukemia | NCI-H226 lung | UACC-62 melanoma | CCRF-CEM leukemia | SW-620 colon | OVCAR-5 ovarian | HS 578T breast | NCI-H522 lung | SK-OV-3 ovarian | MOLT-4 leukemia | OVCAR-3 ovarian | MCF7 breast | NCI-H23 lung | UACC-257 melanoma | SK-MEL-5 melanoma

Cc1nc(C(N)=S)sc1C(=O)CC(=O)C(=O)Nc1ccc(Br)cc1
> 100 µM: HCT-15 colon | MDA-MB-231 breast | CAKI-1 renal | ACHN renal | LOX IMVI melanoma | UO-31 renal | MDA-MB-435 | SK-MEL-2 melanoma | NCI-H460 lung | M14 melanoma | A549 NSCLC | 786-0 renal | SN12C renal | SF-295 CNS | NCI/ADR-RES ovarian | SF-539 CNS | HT29 colon | U251 CNS | T-47D breast | MALME-3M melanoma | OVCAR-8 ovarian | A498 renal | HOP-92 NSCLC | HOP-62 NSCLC | MDA-N | SF-268 CNS | BT-549 breast | EKVX NSCLC | IGROV1 ovarian | K-562 leukemia | SNB-75 CNS | TK-10 renal | PC-3 prostate | OVCAR-4 ovarian | SK-MEL-28 melanoma | RXF 393 renal | HCT-116 colon | KM12 colon | RPMI-8226 leukemia | NCI-H226 lung | UACC-62 melanoma | CCRF-CEM leukemia | SW-620 colon | OVCAR-5 ovarian | HS 578T breast | NCI-H522 lung | SK-OV-3 ovarian | OVCAR-3 ovarian | MCF7 breast | NCI-H23 lung | UACC-257 melanoma | SK-MEL-5 melanoma | HL-60(TB) leukemia

From PubChem BioAssay (NCI)
